The values below come from EP2050437A1, “Improved pharmaceutical dry powder compositions for inhalation” (Laboratoires SMB, priority 2007, dated 2009).

What all share (assay type): physicochemical
Series [1] can be described thus: Particle size distribution by laser diffraction, Spraytec with inhalation cell (simulated breathing). The conditions noted are these: agglomerates as at the exit of the DPI. The text has this: However, it may be desirable for unstable (redispersible) agglomerates to be formed in the powder, and the size of the agglomerates may be as large as 10 µm or more. The size of particles in the powder, when considering the agglomerates, is to be taken as the size of the individual particles making up the agglomerate. The sizes of the individual particles and of the agglomerates may be determined using a suitable laser light diffraction techniques. For example, the higher compressed air values applied in the dispersion unit of the Mastersizer 2000® (Malvern, U.K.) (up to 4 bar), permit all the agglomerates to break down, especially for micron-sized powders, as is the case for DPI formulations. […] This allows the size properties of DPIs to be measured under simulated breathing conditions. For each formulation, the particle size distribution is measured by laser diffractometry, using a dry sampling system with a suitable SOP (Standard Operating Procedure), (Scirocco®, Mastersizer 2000, Malvern, UK) and a Spraytec, (Malvern). The particle size distribution measured with the Mastersizer 2000, Scirocco (Malvern) gives an indication of the size distribution of the individual particles of the powder composition as the powder agglomerates are broken down during the measuring process. […]

Series [2] is described as follows: Particle size distribution by laser diffraction, Mastersizer 2000 with dry sampling (Scirocco). The conditions noted are these: individual particles, dry powder. An excerpt:
However, it may be desirable for unstable (redispersible) agglomerates to be formed in the powder, and the size of the agglomerates may be as large as 10 µm or more. The size of particles in the powder, when considering the agglomerates, is to be taken as the size of the individual particles making up the agglomerate. The sizes of the individual particles and of the agglomerates may be determined using a suitable laser light diffraction techniques. For example, the higher compressed air values applied in the dispersion unit of the Mastersizer 2000® (Malvern, U.K.) (up to 4 bar), permit all the agglomerates to break down, especially for micron-sized powders, as is the case for DPI formulations. […] For each formulation, the particle size distribution is measured by laser diffractometry, using a dry sampling system with a suitable SOP (Standard Operating Procedure), (Scirocco®, Mastersizer 2000, Malvern, UK) and a Spraytec, (Malvern). […] The particle size distribution measured with the Mastersizer 2000, Scirocco (Malvern) gives an indication of the size distribution of the individual particles of the powder composition as the powder agglomerates are broken down during the measuring process. […]

Series [3] in a line: In vitro deposition / fine particle assessment with Multi-stage Liquid Impinger (MsLI), Aerolyzer device. Further details: Metered dose / Device / Throat / Stage 1 / Stage 2 / Stage 3 / Stage 4 / Filter: unit not given here. The conditions noted are these: loaded dose=15mg; for FPD: Fine Particle Dose, aerodynamic diameter inferior to 5 µm. The protocol: The Fine Particle Dose (FPD) has been determined by the method described in the European Pharmacopoeia 4 for the aerodynamic assessment of fine particle, using Apparatus C - Multi-stage Liquid Impinger (MsLI). A dry powder inhalation device (Aerolyzer®, Novartis, Switzerland) was filled with a No. 3 HPMC capsule (Capsugel, France) loaded with 15 mg powder. The flow rate was adjusted to a pressure drop of 4 kPa, as typical for inspiration by a patient, resulting in a flow rate of 100 l/min during 2.4 seconds. At least 3 Fine Particle Dose (FPD) determinations were performed on each formulation and analysis was carried out by a suitable and validated analytical HPLC method. In order to increase the UV absorptivity of the molecule, a derivatization method was applied. The suitable and validated quantification method is described in the USP 25. The HPLC system consisted of a High Performance Liquid Chromatography system (HP 1100 series, Agilent technologies, Belgium), equipped with a quartenary pump, an autosampler and a variable wavelength UV detector set at 365 nm. The separation system was a 30 cm x 3.9 mm stainless steel (5 µm particle size) reversed-phase C18 column (Alltima, Alltech, Belgium). Samples of 20 µl volume were injected. The mobile phase was prepared by dissolving 2 g of Tris(hydroxymethyl) aminomethane in 800 ml of water. After this, 20 ml of H2SO4 1 N was added and then the solution was diluted with acetonitrile to obtain 2 l, mixed and passed through a filter of 0.2 µm porosity. The flow rate was 1.2 ml/min. The mass of test substance retained at each stage was determined from the HPLC analysis of the recovered solutions. Starting at the filter, a cumulative mass deposition (undersize in percentage) vs. cut-off diameter of the respective stages was derived and the FPD was calculated by interpolating the mass of active ingredient less than 5 µm. […] It is considered to be directly proportional to the amount of drug able to reach the pulmonary tract in vivo, and consequently, the higher the value FPD, the higher the estimated lung deposition. […] Table 2: In vitro deposition study, with formulation given in example 1 vs. micronized tobramycin (raw material) (loaded dose=15mg, n=3).

Take `NC[C@H]1O[C@H](O[C@H]2[C@H](O)[C@@H](O[C@H]3O[C@H](CO)[C@@H](O)[C@H](N)[C@H]3O)[C@H](N)C[C@@H]2N)[C@H](N)C[C@@H]1O` [Micronized tobramycin, tobramycin]: the “particles having a diameter below 5.0 µm” value in series [1] is 72%. Moreover, the “mass median diameter (d(0.5))” value in series [2] is recorded as “about 1.3 µm”. Moreover, in series [3] (n=3), the FPD was determined as 5.5 ± 0.9 mg and the Metered dose was 12.9 ± 0.3. The FPD entry in series [3] (n=3, listed as micronized tobramycin) is listed as “around 5.5 mg”. Besides, in series [3] (mass deposited, n=3), the Filter amounted to 1.4 ± 0.3, the “Stage 1” value was 0.9 ± 0.3, the “Stage 2” value came to 0.6 ± 0.4 and the “Stage 3” value is 2.1 ± 0.9. Besides, in series [3] (mass deposited, n=3), the “Stage 4” value was determined as 1.7 ± 0.6 and the Throat is recorded as 0.3 ± 0.1. Besides, the Device in series [3] (mass deposited, n=3, 100 l/min during 2.4 seconds) is recorded as 6.0 ± 0.7.
